{"source": "patent US11197911B2", "about": "“Peptidylic inhibitors targeting C9ORF72 hexanucleotide repeat-mediated neurodegeneration” (The Chinese University of Hong Kong, priority 2016, dated 2021)", "key": {"[1]": {"system": "(GGGGCC)66-expressing SK-N-MC cells", "experiment": "LDH cytotoxicity assay, (GGGGCC)66-induced cell death", "assay_type": "cell-based", "conditions": "for effect on (GGGGCC)66-induced cell death (LDH enzyme activity in medium): 0.1, 1, 10 and 20 μM peptide; for suppression of (GGGGCC)66-induced cell death compared with P3L (structure-activity relationship study): 10 μM, single alanine substitution mutants", "protocol": "SK-N-MC cells were kindly provided by Prof. Dobrila D. Rudnicki (Johns Hopkins University, USA). […] Leonard Petrucelli (Mayo Clinic, USA).\nFor IC50 detection, various amount of TAT-P3L, 0.1, 0.5, 1, 10, 50, 100, 500, 1,000 and 10,000 nM were added to individual culture wells after transfection. Forty eight hours after treatment, LDH enzyme activity in the cell culture medium was measured as described before. Experimental groups were normalized to the untransfected control. After normalization, data were analyzed using the dose response-inhibition curve (nonlinear regression-variable slope) to determine the IC50 value (Prism6 software, GraphPad Software, Inc.)."}, "[2]": {"system": "GGGGCC RNA foci in (GGGGCC)66-expressing SK-N-MC cells", "experiment": "RNA fluorescence in situ hybridization, GGGGCC RNA foci formation", "assay_type": "cell-based", "conditions": "10 μM, 48 h", "protocol": "In situ hybridization was carried out to evaluate the effect of TAT-P3L on GGGGCC RNA foci formation in […]-expressing SK-N-MC cells. In brief, 0.8×10^5 SK-N-MC cells were seeded and grown on glass coverslips in 24-well plate. Ten micromolar of TAT-P3L or TAT-P3LS1 were added immediately after transfection of 1 μg of pAg3-(GGGGCC)2/66 plasmid. After 48 h, cells were fixed with 4% paraformaldehyde for 10 min and permeabilized with 0.5% Triton-X 100 for 5 min at room temperature. Cells were then washed with phosphate buffered saline treated with diethylpyrocarbonate (DEP-CPBS) three times, and hybridized with 40 nM denatured TYE563-labeled LNA probe (5′-TYE563-CCCGGCCCCGGCCCC-3′; SEQ ID NO:13; Exiqon, Inc) in hybridization buffer (50% formamide, 10% dextran sulfate, 2× saline-sodium citrate buffer (SSC), 50 mM sodium phosphate buffer) 6 h at 65° C. After washing once with 0.1% Tween-20/2×SSC for 5 min at room temperature, cell were further washed with 0.1×SSC 3 times at 65° C. for 10 min. Nuclei were counterstained with Hoechst 33342 (1 μg/ml, Thermo Fisher Scientific) prior to mounting coverslips. Images were obtained on an OLYMPUS FV1000 IX81-TIRF confocal microscope."}, "UAS-(GGGGCC)3 flies [3]": {"system": "UAS-(GGGGCC)3 flies", "experiment": "Lifespan assay, control flies", "assay_type": "in vivo, Drosophila", "conditions": "50 μM in food"}, "UAS-(GGGGCC)3 flies [4]": {"system": "UAS-(GGGGCC)3 flies", "experiment": "External eye assay, control flies", "assay_type": "in vivo, Drosophila", "conditions": "GMR-Gal4/UAS-(GGGGCC)3 flies; 100 μM feeding", "protocol": "(§1) Flies were raised at 25° C. on cornmeal medium supplemented with dry yeast. For […], third instar larvae were feed with 100 μM of TAT-P3L or TAT-P3LS1 dissolved in 2% sucrose solution for 2 h and then continued to culture in standard fly food. Eye images of 1 day-old adult of UAS-(GGGGCC)3 or UAS-(GGGGCC)36 flies were captured using a SPOT Insight CCD camera (Diagnostic instruments Inc.) on an Olympus SZX-12 stereomicroscope."}, "nucleophosmin (B23)": {"system": "nucleophosmin (B23)", "experiment": "Immunostaining, nucleolar stress marker B23 localization", "assay_type": "cell-based", "conditions": "(GGGGCC)66-expressing SK-N-MC cells; 10 μM; 48 h", "protocol": "(§2) SK-N-MC cells were seeded and grown on glass coverslips at a density of 0.8×10^5 in 24-well plate. Forty eight hours after treatment, cells were fixed with 4% paraformaldehyde followed by three times wash with 1×PBS. Cells were then permeabilized in 0.5% Triton X-100 for 10 min at room temperature followed by three washes with 1×PBS. After washing step, cells were blocked with 5% BSA in 1×PBS for 1 h at room temperature. The NCL (1:500, Abcam) or B23 (1:500, Abcam) antibody was then applied with 5% BSA (1:500) 2 h at room temperature. Once the primary antibody was removed, Cells were washed three times with 1×PBS and incubated with an anti-rabbit Cy3 or an anti-mouse Cy3 secondary antibody (1:400, Jackson Labs) 1 h at room temperature. After washing with 1×PBS, nuclei were counterstained with Hoechst 33342 (1 μg/ml, Thermo Fisher Scientific) prior to mounting coverslips. Images were obtained on an OLYMPUS FV1000 IX81-TIRF confocal microscope. A single focal plan was obtained through the centre of the nucleus. The method of quantification of NCL and B23 nuclear area fold change was described previously^7. In order to quantify both dispersed NCL and dense nucleolar NCL, a threshold setting in ImageJ ranging from 25-100 was used to measure the pixel area of NCL relative to the area of the nucleus outlined by the Hoechst staining. […]"}, "UAS-(GGGGCC)36 flies [5]": {"system": "UAS-(GGGGCC)36 flies", "experiment": "External eye assay", "assay_type": "in vivo, Drosophila", "conditions": "GMR-Gal4/UAS-(GGGGCC)36 flies; 100 μM feeding; 1 day-old adults", "protocol": "as §1"}, "UAS-(GGGGCC)36 flies [6]": {"system": "UAS-(GGGGCC)36 flies", "experiment": "Climbing ability assay", "assay_type": "in vivo, Drosophila", "conditions": "elavGS flies, RU486 200 μM plus peptide 50 μM in food, 10, 15, 20 and 25 dpe", "protocol": "Fly climbing ability was analyzed by negative geotaxis."}, "UAS-(GGGGCC)36 flies [7]": {"system": "UAS-(GGGGCC)36 flies", "experiment": "Lifespan assay", "assay_type": "in vivo, Drosophila", "conditions": "elavGS flies, RU486 200 μM plus peptide 50 μM in food"}, "UAS-(GGGGCC)3 flies [8]": {"system": "UAS-(GGGGCC)3 flies", "conditions": "50 μM in food", "experimental": "For lifespan and climbing ability assay, flies of 2dpe were feed with food containing different drug combination including vehicle control (ethanol), Mifepristone (RU486, 200 μM), RU486 (200 μM) plus TAT-P3L (50 μM), and RU486 (200 μM) plus TAT-P3LS1 (50 μM). Mifepristone (RU486, 200 μM) was used to induce transgene expression. For climbing ability assay, 10-15 flies were allocated to each experimental vials (total of 90-100 flies per condition) and monitored every 5 days. Fly climbing ability was analyzed by negative geotaxis. Groups of ∞15 flies were anesthetized and placed in a vertical plastic column. After 1 h recovery, flies were banged to the bottom, and then scored for climbing ability as the percentage of flies remaining at the bottom (<2 cm) at 25 s. Three trials were performed at 3 min intervals in each experiment."}, "NCL": {"system": "NCL", "experiment": "Immunostaining, nucleolar stress marker NCL localization", "assay_type": "cell-based", "conditions": "(GGGGCC)66-expressing SK-N-MC cells; 10 μM; 48 h", "protocol": "as §2"}, "[9]": {"system": "expanded CAG repeat-mediated nucleolar stress", "conditions": "polyQ disease; inventors' previous work (ref. 20); cited from earlier work"}}, "note": "“Also recorded” adds a separate entry of the source. No end group written: not given here."}
{"substance": "YGRKKRRQRRRAEIRLVSKDGKSKGIAYIEFK [TAT-P3L]", "values": [{"measurement": "IC50", "setting": "[1]; 48 h, concentration reducing LDH enzyme activity by 50% vs untreated control, read-out: IC50 in suppressing (GGGGCC)66-induced cell death", "value": "104 ± 24.6", "unit": "nM"}, {"measurement": "RNA foci-like structure formation in control group", "setting": "[2]", "value": "no RNA foci-like structure formed"}, {"measurement": "lifespan of control flies", "setting": "UAS-(GGGGCC)3 flies [3]", "value": "did not alter the lifespan"}, {"measurement": "eye defect in control flies", "setting": "UAS-(GGGGCC)3 flies [4]", "value": "did not cause any observable eye defect"}]}
{"substance": "TAT-RRM4-P1: TAT fusion peptide YGRKKRRQRRRRARIVTDRETGSSKGFGFVD (SEQ ID NO: 10), derived from RRM4 of NCL (synthetic peptide construct TAT-RRM4-P1)", "values": [{"measurement": "effect on (GGGGCC)66-induced cell death (LDH enzyme activity in medium)", "setting": "[1]; 48 h", "value": "did not demonstrate any modifying effect; also recorded: did not alter"}]}
{"substance": "YGRKKRRQRRRTFIKVPQNQNGKSKGYAF [TAT-RRM3-P1]", "values": [{"measurement": "cytotoxicity elicited by the peptide by itself (LDH)", "setting": "[1]; when the dose was raised", "value": "elicited cytotoxicity"}]}
{"substance": "AEIRLVSKDGKSKGIAYIEFK [P3L]", "values": [{"measurement": "subcellular localization of B23", "setting": "nucleophosmin (B23)", "value": "restored the subcellular localization"}, {"measurement": "eye degeneration (scar formation in eye)", "setting": "UAS-(GGGGCC)36 flies [5]", "value": "significantly suppressed neurodegeneration"}, {"measurement": "climbing defect", "setting": "UAS-(GGGGCC)36 flies [6]", "value": "rescued locomotor deficit"}, {"measurement": "lifespan (in words)", "setting": "UAS-(GGGGCC)36 flies [7]", "value": "extended lifespan"}, {"measurement": "climbing ability of control flies", "setting": "UAS-(GGGGCC)3 flies [8]", "value": "not found to be affecting the climbing ability"}, {"measurement": "subcellular localization of NCL", "setting": "NCL", "value": "restored the subcellular localization"}]}
{"substance": "P3: peptide DGKSKGIAYIEFK (SEQ ID NO:2), derived from RRM2 of NCL, inventors' previous work (synthetic peptide construct P3)", "values": [{"measurement": "inhibition of expanded CAG repeat-mediated nucleolar stress and neurodegeneration", "setting": "[9]", "value": "specifically inhibited expanded CAG repeat-mediated nucleolar stress"}]}
{"substance": "TAT-RRM1-P1: TAT fusion peptide YGRKKRRQRRRTGTNRKFGYVD (SEQ ID NO: 7), derived from RRM1 of NCL (synthetic peptide construct TAT-RRM1-P1)", "values": [{"measurement": "effect on (GGGGCC)66-induced cell death (LDH enzyme activity in medium)", "setting": "[1]; 48 h", "value": "did not demonstrate any modifying effect; also recorded: didn't alter"}]}
{"substance": "TAT-P3LMT19: TAT-P3L mutant carrying a single alanine substitution; mutant part SEQ ID NO:32 (YGRKKRRQRRRAEIRLVSKDGKSKGIAYIEFA; synthetic peptide construct TAT; synthetic peptide mutant PL3MT19)", "values": [{"measurement": "suppression of (GGGGCC)66-induced cell death compared with P3L (structure-activity relationship study)", "setting": "[1]; 48 h", "value": "same suppression effect as the P3L peptide"}]}
{"substance": "TAT-P3LMT1: TAT-P3L mutant carrying a single alanine substitution; mutant part SEQ ID NO:14 (YGRKKRRQRRRAAIRLVSKDGKSKGIAYIEFK; synthetic peptide construct TAT; synthetic peptide mutant PL3MT1)", "values": [{"measurement": "suppression of (GGGGCC)66-induced cell death compared with P3L (structure-activity relationship study)", "setting": "[1]; 48 h", "value": "same suppression effect as the P3L peptide"}]}
{"substance": "YGRKKRRQRRRGGEDIKSRVEAASILYFIKKK [TAT-P3LS1, reference compound]", "values": [{"measurement": "RNA foci-like structure formation in control group", "setting": "[2]", "value": "no RNA foci-like structure formed"}]}
